Like-named read-outs stand apart in the source and are kept apart here.
What was measured:
KIT = KIT (Homo sapiens, UniProt P10721); conditions: cited from earlier work
[1] = KIT wild-type, reference kinase inhibitors, from literature

KIT, sequence (P10721 26-976): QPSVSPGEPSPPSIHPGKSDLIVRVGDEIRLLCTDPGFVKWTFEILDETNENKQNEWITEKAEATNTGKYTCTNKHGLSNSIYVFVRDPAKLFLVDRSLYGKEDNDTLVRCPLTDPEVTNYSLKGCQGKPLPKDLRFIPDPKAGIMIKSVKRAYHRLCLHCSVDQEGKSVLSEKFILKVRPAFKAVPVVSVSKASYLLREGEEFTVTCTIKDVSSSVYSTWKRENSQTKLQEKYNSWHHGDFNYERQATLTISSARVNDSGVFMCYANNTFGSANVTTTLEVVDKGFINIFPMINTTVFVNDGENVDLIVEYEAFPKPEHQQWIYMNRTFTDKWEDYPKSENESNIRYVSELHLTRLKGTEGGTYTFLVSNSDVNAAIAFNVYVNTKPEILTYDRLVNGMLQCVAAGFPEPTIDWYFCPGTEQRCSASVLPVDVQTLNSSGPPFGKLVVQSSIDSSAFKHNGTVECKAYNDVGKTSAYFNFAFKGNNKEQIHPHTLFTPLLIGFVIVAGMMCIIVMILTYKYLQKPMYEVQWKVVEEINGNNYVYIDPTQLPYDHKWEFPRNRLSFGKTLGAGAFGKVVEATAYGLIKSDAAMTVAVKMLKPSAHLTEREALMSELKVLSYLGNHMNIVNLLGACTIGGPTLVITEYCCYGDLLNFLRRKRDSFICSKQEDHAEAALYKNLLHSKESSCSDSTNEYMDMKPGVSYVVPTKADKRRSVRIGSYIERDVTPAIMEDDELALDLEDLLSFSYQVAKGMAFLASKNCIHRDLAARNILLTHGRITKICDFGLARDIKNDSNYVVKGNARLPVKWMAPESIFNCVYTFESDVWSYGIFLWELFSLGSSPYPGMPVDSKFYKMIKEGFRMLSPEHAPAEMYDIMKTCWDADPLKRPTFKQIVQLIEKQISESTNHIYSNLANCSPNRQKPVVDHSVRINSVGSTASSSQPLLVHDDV

SMILES | melting point [°C] | other results
O=C(c1cccc(Nc2nc(-c3ccccc3)nc3ccccc23)c1)N1CCN(c2ncc(Cc3ccccc3)cn2)CC1 [Compound 22, (4-(5-benzylpyrimidin-2-yl)piperazin-1-yl)(3-(2-phenylquinazolin-4ylamino)phenyl)methanone] | 214 to 215 | 
COCC(=O)NC/C=C/c1ccc2ncnc(Nc3ccc(Oc4ccc(C)nc4)c(C)c3)c2c1 [CP-724714] |  | Kd (KIT; [1]): > 10000 nM
O=C(c1ccc(CNc2nc(-c3ccccc3)nc3ccccc23)cc1)N1CCN(c2ncc(Cc3ccccc3)cn2)CC1 [Compound 24, (4-(5-benzylpyrimidin-2-yl)piperazin-1-yl)(4-((2-phenylquinazolin-4-ylamino)methyl)phenyl)methanone] | 216 to 217 | 
CCOc1cc2ncc(C#N)c(Nc3ccc(F)c(Cl)c3)c2cc1NC(=O)/C=C/CN(C)C [EKB-569] |  | Kd (KIT; [1]): > 10000 nM
CCc1cnc(N2CCN(c3ncnc4ccccc34)CC2)nc1 [Compound 3, 4-(4-(5-ethylpyrimidin-2-yl)piperazin-1-yl)quinazoline] | > 250 | 
O=C(c1ccc(CNc2ncnc3ccccc23)cc1)N1CCN(c2ncc(Cc3ccccc3)cn2)CC1 [Compound 18, (4-(5-benzylpyrimidin-2-yl)piperazin-1-yl)(4-((quinazolin-4-ylamino)methyl)phenyl)methanone] | 99 to 101 | 
Oc1ccc(-c2nc(-c3ccc(F)cc3)c(-c3ccncc3)[nH]2)cc1 [SB-202190] |  | Kd (KIT; [1]): > 10000 nM
O=C(c1ccc(Nc2nc(-c3ccccc3)nc3ccccc23)cc1)N1CCN(c2ncc(Cc3ccccc3)cn2)CC1 [Compound 23, (4-(5-benzylpyrimidin-2-yl)piperazin-1-yl)(4-(2-phenylquinazolin-4ylamino)phenyl)methanone] | > 250 | 
CCc1cnc(N2CCN(C(=O)c3ccc(Nc4ncnc5ccccc45)cc3)CC2)nc1 [Compound 14, (4-(5-ethylpyrimidin-2-yl)piperazin-1-yl)(4-(quinazolin-4-ylamino)phenyl)methanone] | 248 to 249 | 
CCc1cnc(N2CCN(C(=O)c3cccc(Nc4ncnc5ccccc45)c3)CC2)nc1 [Compound 13, (4-(5-ethylpyrimidin-2-yl)piperazin-1-yl)(3-(quinazolin-4-ylamino)phenyl)methanone] | 146 to 147 | 
CCc1cnc(N2CCN(C(=O)c3ccccc3NC3=c4ccccc4=NCN3c3ccccc3)CC2)nc1 [Compound 19, (4-(5-ethylpyrimidin-2-yl)piperazin-1-yl)(2-(3-phenylquinazolin-4-ylamino)phenyl)methanone] | 204 to 205 | 
CCc1cnc(N2CCN(C(=O)c3ccccc3NC3(c4ccccc4)NC=Nc4ccccc43)CC2)nc1 (centres unmarked) [Compound 20, (4-(5-ethylpyrimidin-2-yl)piperazin-1-yl)(2-(4-phenylquinazolin-4-ylamino)phenyl)methanone] | > 250 | 
NC(=O)c1ccc(-c2nc(-c3ccccn3)c(-c3ccc4c(c3)OCO4)[nH]2)cc1 [SB-431542] |  | Kd (KIT): > 10000 nM
CCc1cnc(N2CCN(C(=O)c3ccc(CNc4nc(-c5ccccc5)nc5ccccc45)cc3)CC2)nc1 [Compound 21, (4-(5-ethylpyrimidin-2-yl)piperazin-1-yl)(4-((2-phenylquinazolin-4ylamino)methyl)phenyl)methanone] | 207 to 208 | 
CCc1cnc(N2CCN(c3nc(-c4ccccc4)nc4ccccc34)CC2)nc1 [Compound 5, 4-(4-(5-ethylpyrimidin-2-yl)piperazin-1-yl)-2-phenylquinazoline] | 137 to 138 | 
c1ccc(Cc2cnc(N3CCN(c4nc(-c5ccccc5)nc5ccccc45)CC3)nc2)cc1 [Compound 6, 4-(4-(5-benzylpyrimidin-2-yl)piperazin-1-yl)-2-phenylquinazoline] | 135 to 137 | 
O=C(c1ccc(Nc2ncnc3ccccc23)cc1)N1CCN(c2ncc(Cc3ccccc3)cn2)CC1 [Compound 17, (4-(5-benzylpyrimidin-2-yl)piperazin-1-yl)(4-(quinazolin-4-ylamino)phenyl)methanone] | 245 to 247 | 
